Test results reported in patent US6391899B1, “Compounds and compositions for treating tissue ischemia” (North Shore—Long Island Jewish Research Institute, priority 1998, dated 2002).
Like-named read-outs stand apart in the source and are kept apart here.

Assays:
[1] = system: cultured hippocampal neurons; assay: NMDA neurotoxicity in cultured hippocampal neurons (trypan blue); assay type: cell-based
Procedure: When aminoguanidine was added to primary neuronal cultures treated with N-methy-D-aspartic acid (NMDA), no attenuation of cytotoxicity was observed (Table III). […] Cultured hippocampal neurons (12-15 days in vitro) were exposed to NMDA (500 μM) for 5 min in MEM (without serum) supplemented with glutamine (100 μM) and glycine (10 μM), rinsed in Earle's Basic Salt Solution, and incubated under standard conditions for 24 hr (37° C.). Neuronal survival was assessed microscopically, by counting a sample of cell somas for uptake vs. exclusion of trypan blue. Aminoguanidine or the non-competitive excitatory amino acid receptor antagonist, MK-801, was added just prior to NMDA and in the final rinse at the concentrations shown. Data are mean±s.e. of nine wells from three replicate experiments.

focal cerebral ischemia = conditions: for volume of brain tissue infarcted vs vehicle-treated controls: i.p. beginning 15 minutes after onset of ischemia, total dose PICVA-25 and PICVA-27 200 mg/kg, PICVA-13 400 mg/kg
rat brain cortex = conditions: for cell necrosis and apoptosis at the injection zone (eosin, TUNEL staining): intracortical microinjection, histology 24 hr; for protection against spermine-mediated intracortical damage, systemic administration: i.p. treatment, intracortical spermine 25 μg, infarct volume 48 hr
polyamine oxidase = assay: Polyamine oxidase activity in ischemic brain homogenates (conversion of added spermine, HPLC); assay type: biochemical, rat; conditions: for polyamine oxidase activity in ischemic brain homogenate (FIG. 1): 1 mM added 5 minutes prior to spermine; for IC50: homogenates of ischemic brain, inhibitor added 5 minutes prior to spermine, read-out: I.C.50 for polyamine oxidase activity
Procedure: To measure tissue polyamine oxidase activity, brain homogenates were prepared from the anatomic region perfused by the middle cerebral artery, and total polyamine oxidase activity determined using a method described previously (Seiler and Bolkenius, Neurochem. Res. 10:529-544, 1985; Seiler et al., Med. Biol. 59:334-346, 198 1; and […] et al., J. Neurosci. Res. 28:434-441, 1991), relying on the metabolic conversion of added spermine.

iNOS = target: T1, iNOS (Mus musculus, UniProt P29477); assay: iNOS activity in RAW 264.7 cell lysates; assay type: biochemical; conditions: 1 mM
T1 construct: iNOS activity measured in RAW 264.7 cell lysates; endogenous in cells; host or cells: RAW 264.7 cell lysates

[2] = system: glial cell cultures (HTB14); conditions: for inhibition of 3-aminopropanal-induced cell death: HTB14, 3 hours pretreatment, then 3-aminopropanal 5 hours, MTT
[3] = system: neuronal cell cultures (HTB11); conditions: HTB11 cells, overnight incubation
glial cells (HTB14) = assay: Apoptosis detection in glial cells (TUNEL flow cytometry, DNA fragmentation); assay type: cell-based, human; conditions: for development of TUNEL-positivity in 3-aminopropanal-treated glial cells: iNOS inhibitor added, cytofluorography
Procedure: (§1) Additional evidence of apoptosis by flow cytometric detection of DNA strand breaks was obtained using the terminal deoxynucleotidyl taansferase mediated dUTP nick end labeling TUNEL) method (Gavrieli et al., J. Cell. Biol 119:493-501, 1992). Terminal deoxynucleotidyl transferase mediated dUTP nick end labeling (TUNEL) staining was performed on cell cultures treated with 3-aminopropanal, as indicated. Cells were harvested and collected by centrifugation at 1,500 rpm for 5 min. The pellets were fixed with 1×ORTHO Permeafix (Orthodiagnostics) at room temperature for 40 min. After washing with Dulbecco's phosphate-buffered saline containing 1% bovine serum albumin (PBS-BSA), cells were stained by the TUNEL method using the Oncor Apop Tag Direct Fluorescein kit (Oncor), in accordance with the manufacturer's instructions. A negative control was performed by preparing a reaction solution that was devoid of TdT. A Becton Dickinson flow cytometer was used for all analyses; five to ten thousand events (ungated) were collected according to a single color procedure.
(§2) DNA samples from HTB11 or HTB14 cells (20-30×10^6 cells) were assayed for strand breakage by resuspending harvested cells (treated with 3-AP or control) in a reaction buffer containing proteinase K, and incubating overnight at 55° C. RNase was added to a final concentration of […] and the samples were incubated at 37° C. for one hour. DNA was extracted three times with phenol/chloroform and twice with chloroform and precipitated in two volumes of chilled 100% ethanol and 0.3M sodium acetate (pH 5.2). The DNA was resuspended in 50 μl of dH2O, fractionated by 1.5% agarose gel electrophoresis, and stained with SYBR Green I nucleic acid stain (Molecular Probes).
(§3) There was also no evidence of apoptosis as measured with Annexin V, a method used to detect loss of cell membrane phospholipid asymmetry that has be associated with apoptosis. Annexin V/propidium iodide (PI) staining was performed using a kit in accordance to the manufacturer's instructions (Me Apoptosis Detection Kit, R&D Systems, Minneapolis). Cells were analyzed by flow cytometry within one hour of completion of staining. The AnnexinV-FITC and PI signals were quantitated independently according to a two-color flow cytometric procedure.

[4] = system: glial cell cultures (HTB14); assay: Toxicity of test compounds in parallel glial cultures incubated without 3-AP; assay type: cell-based, human; conditions: Table V; HTB14, parallel cultures without 3-AP
Procedure: In an alternative embodiment of the screening assay of Example 3, various concentrations of the test compound (e.g. 10-1000 μM) are incubated with the indicator cells in presence of a fixed concentration fo 3-AP (e.g, 200 μM).

[5] = system: glial cell cultures (HTB14); assay: cells; conditions: Homo sapiens, read-out: 50% Effective dose (protection against 3-AP)
[6] = system: primary rat astroglial cell cultures; assay: 3-aminopropanal cytotoxicity in primary astroglial cultures; assay type: cell-based
[7] = system: neuronal cell cultures (HTB11); assay: Apoptosis and cell death detection in neuronal cells (TUNEL, Annexin V, DNA electrophoresis, scatter analysis); assay type: cell-based, human; conditions: for induction of apoptosis in neuronal cells: HTB11, TUNEL, Annexin V, camptothecin 15 μg/ml for 20 hr
Procedure: as §1
as §2, with “The DNA was resuspended in 50 μl of dH2O, fractionated by 1.5% agarose gel electrophoresis, and stained with SYBR Green I nucleic acid stain (Molecular Probes).” left out
as §3, with “Annexin V/propidium iodide (PI) staining was performed using a kit in accordance to the manufacturer's instructions (Me Apoptosis Detection Kit, R&D Systems, Minneapolis).” left out

[8] = system: intracerebral TNF synthesis; assay: Intracerebral TNF synthesis after central administration; assay type: in vivo; conditions: centrally administered; data not illustrated
[9] = with NMDA (500 μM) 5 min, MK-801 20 μM or aminoguanidine 1000 μM, 24 hr
[10] = 25 μg in 2 μl intracortical, assessed 48 hr later

T1 sequence (P29477 whole entry): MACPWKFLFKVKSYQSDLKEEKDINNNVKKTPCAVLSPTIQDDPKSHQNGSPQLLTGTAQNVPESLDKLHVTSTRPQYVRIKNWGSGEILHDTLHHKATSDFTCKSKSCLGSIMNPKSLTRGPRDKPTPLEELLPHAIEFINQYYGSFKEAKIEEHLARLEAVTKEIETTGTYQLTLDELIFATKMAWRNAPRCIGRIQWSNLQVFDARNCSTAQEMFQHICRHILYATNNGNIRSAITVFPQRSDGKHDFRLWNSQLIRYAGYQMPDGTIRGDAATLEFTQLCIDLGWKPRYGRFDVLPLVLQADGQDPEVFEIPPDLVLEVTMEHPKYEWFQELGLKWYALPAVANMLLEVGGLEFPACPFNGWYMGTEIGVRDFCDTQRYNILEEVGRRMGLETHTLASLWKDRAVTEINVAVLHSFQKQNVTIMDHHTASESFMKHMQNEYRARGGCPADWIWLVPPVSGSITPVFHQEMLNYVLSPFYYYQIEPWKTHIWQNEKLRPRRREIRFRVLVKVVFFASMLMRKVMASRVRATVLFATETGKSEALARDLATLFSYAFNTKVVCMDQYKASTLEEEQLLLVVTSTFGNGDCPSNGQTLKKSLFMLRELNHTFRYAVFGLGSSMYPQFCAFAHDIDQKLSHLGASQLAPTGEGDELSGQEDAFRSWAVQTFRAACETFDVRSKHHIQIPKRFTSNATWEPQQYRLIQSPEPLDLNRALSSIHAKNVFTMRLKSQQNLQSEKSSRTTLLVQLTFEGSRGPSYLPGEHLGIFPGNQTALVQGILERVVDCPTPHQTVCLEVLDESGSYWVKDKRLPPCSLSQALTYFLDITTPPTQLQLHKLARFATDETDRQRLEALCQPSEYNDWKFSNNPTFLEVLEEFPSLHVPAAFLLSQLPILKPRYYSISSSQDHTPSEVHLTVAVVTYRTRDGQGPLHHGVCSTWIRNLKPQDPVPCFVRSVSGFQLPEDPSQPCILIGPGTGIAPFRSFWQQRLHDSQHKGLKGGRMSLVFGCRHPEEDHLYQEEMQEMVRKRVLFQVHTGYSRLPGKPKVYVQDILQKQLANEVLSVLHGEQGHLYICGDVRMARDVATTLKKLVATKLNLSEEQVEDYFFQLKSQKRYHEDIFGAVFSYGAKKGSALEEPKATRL

How did the “Neurotoxicity (% dead)” value [1, 9] turn out when C[C@]12N[C@H](Cc3ccccc31)c1ccccc12 [MK-801] was run?
Its value is 8 ± 3 % dead.

What does the source list for O=C(C[n+]1ccsc1)c1ccccc1.[Br-] [p25, 3-(2-phenyl-2-oxoethyl)-thiazolium bromide]?
volume of brain tissue infarcted vs vehicle-treated controls (focal cerebral ischemia): significantly reduced; mortality associated with treatment in the in vivo screening tests (focal cerebral ischemia; rats with focal cerebral ischemia): 38%

NCCCNCCCCNCCCN [spermine] was tested. Which “cell necrosis and apoptosis at the injection zone (eosin, TUNEL staining)” value (rat brain cortex) did it give?
The value was “caused cell necrosis and apoptosis”.

And the “brain damage after intracortical microinjection (TTC staining)” value (from here on “brain damage”) (rat brain cortex; rat, in vivo)?
The value was “brain tissue damage”.

Which results are given for CCN(CC)CCCC(C)Nc1ccnc2cc(Cl)ccc12 (stereo not shown) [chloroquine]?
systemic homeostatic responses to cerebral ischemia (blood pressure, heart rate, body temperature, arterial blood gases) (focal cerebral ischemia; rat, in vivo): did not significantly alter; protection against spermine-mediated intracortical damage, systemic administration (rat brain cortex): conferred significant protection; polyamine oxidase activity in ischemic brain homogenate (FIG. 1) (polyamine oxidase): inhibited; IC50 (polyamine oxidase): 40 µM; iNOS activity (iNOS): 11800±900 DPM/mg protein

With Ac-DEVD-CHO as the molecule, how does the “inhibition of 3-aminopropanal-induced cell death” value [2] read?
Its value is “not”.

N=C(N)NN [aminoguanidine] was tested. Which “LD50 for 3-aminopropanal in the presence of the PAO inhibitor vs without” value [3] did it give?
The value was “similar”.

And the “development of TUNEL-positivity in 3-aminopropanal-treated glial cells” value (glial cells (HTB14))?
The value was “failed to attenuate”.

And the “protection against intracortical spermine-mediated cell death, intracortical administration” value (rat brain cortex; given intracortically simultaneously with spermine)?
Its value is “conferred significant protection”.

What about the “protection against spermine-mediated intracortical damage, systemic administration” value (rat brain cortex) of the same molecule?
Its value is “conferred significant protection”.

What about the “effect on direct cytotoxicity of intracortical 3-aminopropanal” value (rat brain cortex; intracortical 3-aminopropanal) of the same molecule?
Its value is “failed to significantly attenuate”.

What about the “effect on spermine-induced cell necrosis and apoptosis (histology)” value (rat brain cortex; intracortical spermine) of the same molecule?
Its value is “significantly inhibited”.

What about the “polyamine oxidase activity in ischemic brain homogenate (FIG. 1)” value (polyamine oxidase) of the same molecule?
Its value is “inhibited”.

And the IC50 (polyamine oxidase)?
The IC50 was 400 µM.

And the “Neurotoxicity (% dead)” value [1, 9]?
The value was 79 ± 4 % dead.

And the “Neurotoxicity (% dead)” value ([1]; without NMDA, aminoguanidine 1000 μM alone)?
Its value is 7 ± 2 % dead.

CNC(=N)NCCC[C@H](N)C(=O)O [L-NMMA, L-N^G-monomethylarginine] was tested. Which “development of TUNEL-positivity in 3-aminopropanal-treated glial cells” value (glial cells (HTB14)) did it give?
The value was “failed to attenuate”.

Which “brain damage” value (rat brain cortex; [10]) does the source give for NCCCCNCCCN [spermidine] here?
The value was “brain tissue damage”.

For O=C(O)c1cc(Br)c[n+](CC(=O)c2ccccc2)c1.[Br-] [AP22, N-(2-phenyl-2-oxoethyl)-3-bromo-5-carboxypyridinium bromide], which “50% Toxic dose” value [4] is on record?
The value was 1 mM.

What about the EC50 [5] of the same molecule?
The EC50 was 199 µM.

For Ac-YVAD-CMK, which “inhibition of 3-aminopropanal-induced cell death” value [2] is on record?
The value was “conferred dose-dependent inhibition”.

Which “brain damage” value (rat brain cortex; [10]) does the source give for NCCCCN [putrescine] here?
The value was “cell death was not observed”.

What about the “cell necrosis and apoptosis at the injection zone (eosin, TUNEL staining)” value (rat brain cortex) of the same molecule?
Its value is “not observed”.

For NC(=O)c1cc[n+](CC(=O)c2ccccc2)cc1C(N)=O [AP21, N-(2-phenyl-2-oxoethyl)-3,4-dicarboxyamide-pyridinium bromide], which EC50 ([2]; read-out: 50% Effective dose (protection against 3-AP), Table V, HTB14, fixed 3-AP (e.g. 200 μM)) is on record?
The EC50 was 100 µM.

Which results are given for NCCC=O [3-aminopropanal]?
glial cells stained TUNEL-positive (glial cells (HTB14); 13 hours of exposure to 275 μM): 76%; apoptosis-specific DNA fragmentation (glial cells (HTB14); HTB-14 glial cells exposed to 3-aminopropanal): apoptosis-specific DNA fragmentation pattern was observed; cytotoxic LD50 [6]: 80 ± 9 µM; cell necrosis and apoptosis at the injection zone (eosin, TUNEL staining) (rat brain cortex): both cellular necrosis and programmed cell death; brain damage after intracortical microinjection (TTC staining) (rat brain cortex; rat, in vivo): caused significant cytotoxicity; induction of apoptosis in neuronal cells [7]: did not induce apoptosis; cell death by forward scatter/side scatter analysis ([7]; HTB11 neurons after 3-aminopropanal treatment): 55.7%; intracerebral TNF synthesis [8]: directly stimulated

O=C(C[n+]1ccccc1)c1ccccc1.[Br-] [p27a, N-(2-phenyl-2-oxoethyl)-pyridinium bromide] was tested. Which “50% Toxic dose” value [4] did it give?
Its value is 5 mM.

What about the “mortality associated with treatment in the in vivo screening tests” value (focal cerebral ischemia; Lewis, rat, in vivo) of the same molecule?
Its value is 25%.

And the “volume of brain tissue infarcted vs vehicle-treated controls” value (focal cerebral ischemia)?
The value was “significantly reduced”.

What about the EC50 [5] of the same molecule?
The EC50 was 425 µM.

For CC[C@@]1(O)C(=O)OCc2c1cc1n(c2=O)Cc2cc3ccccc3nc2-1 [camptothecin], which “induction of apoptosis in neuronal cells” value [7] is on record?
Its value is “Apoptosis was induced”.

With CN[C@H](CC(=O)O)C(=O)O [NMDA, N-methy-D-aspartic acid] as the molecule, how does the “Neurotoxicity (% dead)” value ([1]; NMDA (500 μM) alone, 5 min exposure, 24 hr) read?
The value was 88 ± 4 % dead.
